# Measured values: publication PMC12051620, “Molecular basis underlying the specificity of an antagonist AA92593 for mammalian melanopsins” (The Journal of Biological Chemistry, 2025)
# Columns and labels:
# [1] = system: mouse melanopsin S269^6.52A mutant; test: GsX GloSensor assay with Gsα/q11; assay type: cell-based; conditions: 16.7 μM AA92593, COS-1 cells
# [2] = system: jumping spider rhodopsin-1 WT; test: GsX GloSensor assay with Gsα/q11; assay type: cell-based; conditions: 16.7 μM AA92593, COS-1 cells
# Text: We next tested the effect of AA92593 on jumping spider rhodopsin-1, a Gq-coupled visual opsin but not melanopsin (see Figs. 2, S2, and S3) ([41]). Similar to non-mammalian-type and invertebrate melanopsins, jumping spider rhodopsin-1 was not sensitive to AA92593 as assessed using the GsX GloSensor assay (Fig. 7L). […] The introduction of I189^ECL2W/Y207^5.42F impaired the light-dependent cAMP responses even in the absence of AA92593 (Fig. S11). Taken together, the non-melanopsin Gq-coupled opsin cannot be functionally converted to an AA92593-sensitive type by site-directed mutagenesis, in contrast to non-mammalian-type and invertebrate melanopsins. […]
# For GloSensor assay, opsins, GloSensor assay sensor (coded by pGlo-22F), and NanoBiT-tagged G proteins were transiently expressed in COS-1 cells (kindly provided from Dr David Farrens, Oregon Health and Science University) using PEI as described previously ([24], [52]). […] For GFP-fluorescence microscopy, a 35-mm cell culture dish (IWAKI) was transfected with 2 μg melanopsin-GFP plasmid and 8 μg PEI in 400 μl Opti-mem and 1.2 ml D-MEM. […]
structure (smiles),measurement,setting,value
COc1ccc(S(=O)(=O)N2CCCCC2)cc1C [AA92593],reduction of the antagonistic effect of AA92593 vs WT,[1],~25%
same,sensitivity to AA92593,[2],not sensitive
